In paper PMC9030254, “Target Hopping from Protein Kinases to PXR: Identification of Small-Molecule Protein Kinase Inhibitors as Selective Modulators of Pregnane X Receptor from TüKIC Library” (Cells, 2022):

Experiments:
Experiment in all cases: Kinase profiling
Assay type in all cases: biochemical
FRK = molecular target: T1, FRK (Homo sapiens, UniProt P42685)
T1 construct: purchased ProQinase (Freiburg, Germany)
Method: (§1) The analysis was performed by ProQinase (Freiburg, Germany).

SIK3 = molecular target: T2, SIK3 (Homo sapiens, UniProt Q9Y2K2)
T2 construct: purchased ProQinase (Freiburg, Germany)
T2 sequence (Q9Y2K2 whole entry): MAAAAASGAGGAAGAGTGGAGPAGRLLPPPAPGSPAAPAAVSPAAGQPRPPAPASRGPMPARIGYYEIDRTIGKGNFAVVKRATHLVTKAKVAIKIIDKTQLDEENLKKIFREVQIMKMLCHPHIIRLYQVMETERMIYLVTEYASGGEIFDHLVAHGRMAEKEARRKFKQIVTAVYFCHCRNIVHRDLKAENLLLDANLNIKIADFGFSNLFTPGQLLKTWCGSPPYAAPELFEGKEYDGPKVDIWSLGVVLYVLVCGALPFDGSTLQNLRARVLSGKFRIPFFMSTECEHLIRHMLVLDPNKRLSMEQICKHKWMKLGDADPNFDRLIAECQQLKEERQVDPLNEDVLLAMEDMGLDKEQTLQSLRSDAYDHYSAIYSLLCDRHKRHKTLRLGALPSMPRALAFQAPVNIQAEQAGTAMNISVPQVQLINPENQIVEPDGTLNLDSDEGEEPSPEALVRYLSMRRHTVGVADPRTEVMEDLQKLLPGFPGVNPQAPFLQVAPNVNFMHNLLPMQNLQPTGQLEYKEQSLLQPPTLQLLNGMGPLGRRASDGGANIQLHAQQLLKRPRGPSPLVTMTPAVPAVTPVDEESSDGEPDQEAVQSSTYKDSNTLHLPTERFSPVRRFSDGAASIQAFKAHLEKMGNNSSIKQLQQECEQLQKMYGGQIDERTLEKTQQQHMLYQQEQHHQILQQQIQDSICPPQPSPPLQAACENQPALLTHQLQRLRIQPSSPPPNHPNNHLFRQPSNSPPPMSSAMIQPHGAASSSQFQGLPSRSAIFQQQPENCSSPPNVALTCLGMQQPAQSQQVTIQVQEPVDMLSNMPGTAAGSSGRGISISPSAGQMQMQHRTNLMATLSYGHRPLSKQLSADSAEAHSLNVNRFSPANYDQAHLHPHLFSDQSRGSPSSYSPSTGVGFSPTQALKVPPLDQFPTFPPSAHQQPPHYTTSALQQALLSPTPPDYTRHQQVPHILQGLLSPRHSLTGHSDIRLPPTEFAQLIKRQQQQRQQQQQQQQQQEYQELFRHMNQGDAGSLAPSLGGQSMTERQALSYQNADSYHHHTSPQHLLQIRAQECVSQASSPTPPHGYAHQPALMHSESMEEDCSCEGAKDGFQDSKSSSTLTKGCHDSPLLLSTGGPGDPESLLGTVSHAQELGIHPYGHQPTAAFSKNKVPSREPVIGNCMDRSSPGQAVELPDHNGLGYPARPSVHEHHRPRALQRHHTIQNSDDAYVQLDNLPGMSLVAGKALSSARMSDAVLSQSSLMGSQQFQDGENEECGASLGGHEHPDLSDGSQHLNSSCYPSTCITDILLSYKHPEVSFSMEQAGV
Method: as §1

PHKG1 = molecular target: T3, PHKG1 (Homo sapiens, UniProt Q16816)
T3 construct: purchased ProQinase (Freiburg, Germany)
T3 sequence (Q16816 whole entry): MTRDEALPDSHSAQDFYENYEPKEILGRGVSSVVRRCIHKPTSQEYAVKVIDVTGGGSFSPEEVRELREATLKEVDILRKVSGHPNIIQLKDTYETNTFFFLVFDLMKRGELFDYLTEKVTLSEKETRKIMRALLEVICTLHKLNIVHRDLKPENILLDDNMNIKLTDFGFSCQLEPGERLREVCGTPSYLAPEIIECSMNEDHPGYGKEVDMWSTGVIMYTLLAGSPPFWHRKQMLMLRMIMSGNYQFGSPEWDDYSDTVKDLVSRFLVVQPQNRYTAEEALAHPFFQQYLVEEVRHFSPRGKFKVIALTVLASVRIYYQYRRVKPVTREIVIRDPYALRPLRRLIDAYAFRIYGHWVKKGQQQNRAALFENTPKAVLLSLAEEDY
Method: as §1

CDK17/p35NCK = molecular target: T4, CDK17/p35NCK (Homo sapiens, UniProt Q00537)
T4 construct: purchased ProQinase (Freiburg, Germany)
Method: as §1

BMPR1B = molecular target: T5, BMPR1B (Homo sapiens, UniProt O00238)
T5 construct: purchased ProQinase (Freiburg, Germany)
Method: as §1

GRK7 = molecular target: T6, GRK7 (Homo sapiens, UniProt Q8WTQ7)
T6 construct: purchased ProQinase (Freiburg, Germany)
T6 sequence (Q8WTQ7 1-553): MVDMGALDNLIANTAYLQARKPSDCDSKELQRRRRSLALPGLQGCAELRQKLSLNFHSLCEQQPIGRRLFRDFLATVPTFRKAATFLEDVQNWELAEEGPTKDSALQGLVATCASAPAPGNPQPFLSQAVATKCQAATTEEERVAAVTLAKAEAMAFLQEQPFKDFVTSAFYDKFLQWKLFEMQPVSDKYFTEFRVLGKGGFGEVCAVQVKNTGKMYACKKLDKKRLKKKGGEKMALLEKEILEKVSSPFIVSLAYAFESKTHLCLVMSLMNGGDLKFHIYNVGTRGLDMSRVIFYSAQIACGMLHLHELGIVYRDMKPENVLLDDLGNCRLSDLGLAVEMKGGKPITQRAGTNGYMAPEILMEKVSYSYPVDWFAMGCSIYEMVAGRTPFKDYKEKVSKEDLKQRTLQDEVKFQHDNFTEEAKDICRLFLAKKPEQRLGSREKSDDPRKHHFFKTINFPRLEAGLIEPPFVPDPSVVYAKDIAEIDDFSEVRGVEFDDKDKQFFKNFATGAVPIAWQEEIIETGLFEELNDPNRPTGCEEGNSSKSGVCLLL
Method: as §1

MAP3K1 = molecular target: T7, MAP3K1 (Homo sapiens, UniProt Q13233)
T7 construct: purchased ProQinase (Freiburg, Germany)
T7 sequence (Q13233 whole entry): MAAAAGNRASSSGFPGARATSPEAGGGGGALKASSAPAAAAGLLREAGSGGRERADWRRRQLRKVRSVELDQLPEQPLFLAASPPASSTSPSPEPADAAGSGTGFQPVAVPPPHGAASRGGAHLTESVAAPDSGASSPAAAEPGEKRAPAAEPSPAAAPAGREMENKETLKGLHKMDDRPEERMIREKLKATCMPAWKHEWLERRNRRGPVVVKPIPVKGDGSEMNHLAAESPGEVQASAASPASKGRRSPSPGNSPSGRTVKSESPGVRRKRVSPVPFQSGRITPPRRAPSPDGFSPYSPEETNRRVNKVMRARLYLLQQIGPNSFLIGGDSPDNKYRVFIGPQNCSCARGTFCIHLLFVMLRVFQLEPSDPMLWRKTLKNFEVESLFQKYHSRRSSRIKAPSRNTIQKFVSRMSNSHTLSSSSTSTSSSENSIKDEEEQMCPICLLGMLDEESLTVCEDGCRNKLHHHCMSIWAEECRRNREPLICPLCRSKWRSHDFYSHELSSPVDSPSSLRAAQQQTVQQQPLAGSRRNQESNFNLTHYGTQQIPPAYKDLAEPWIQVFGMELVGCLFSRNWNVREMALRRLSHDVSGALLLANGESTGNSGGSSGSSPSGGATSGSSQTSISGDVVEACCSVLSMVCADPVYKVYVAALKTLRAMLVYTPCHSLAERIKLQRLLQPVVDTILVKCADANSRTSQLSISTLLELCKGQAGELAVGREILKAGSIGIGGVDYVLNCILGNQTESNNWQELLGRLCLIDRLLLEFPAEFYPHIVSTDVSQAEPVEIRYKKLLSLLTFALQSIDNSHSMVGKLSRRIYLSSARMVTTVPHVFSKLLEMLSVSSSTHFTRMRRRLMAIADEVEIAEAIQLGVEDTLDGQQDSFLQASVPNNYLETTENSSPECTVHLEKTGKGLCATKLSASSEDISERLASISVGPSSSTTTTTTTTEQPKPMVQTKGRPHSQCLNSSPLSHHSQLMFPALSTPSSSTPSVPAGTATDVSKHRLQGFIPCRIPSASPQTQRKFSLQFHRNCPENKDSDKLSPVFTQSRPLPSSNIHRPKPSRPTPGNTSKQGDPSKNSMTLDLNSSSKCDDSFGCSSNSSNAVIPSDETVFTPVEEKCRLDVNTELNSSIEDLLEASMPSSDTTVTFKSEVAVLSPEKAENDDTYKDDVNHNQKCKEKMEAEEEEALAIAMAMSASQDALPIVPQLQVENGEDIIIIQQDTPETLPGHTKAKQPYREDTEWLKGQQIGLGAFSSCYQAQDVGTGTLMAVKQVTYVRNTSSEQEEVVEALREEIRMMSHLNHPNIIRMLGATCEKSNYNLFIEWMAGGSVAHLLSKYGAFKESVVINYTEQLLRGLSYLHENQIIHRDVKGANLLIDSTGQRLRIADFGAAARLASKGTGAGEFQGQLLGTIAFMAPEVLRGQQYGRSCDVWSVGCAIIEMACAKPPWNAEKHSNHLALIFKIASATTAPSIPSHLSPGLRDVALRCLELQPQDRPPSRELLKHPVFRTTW
Method: as §1

CHK1 = molecular target: T8, CHK1 (Homo sapiens, UniProt O14757)
T8 construct: purchased ProQinase (Freiburg, Germany)
T8 sequence (O14757 1-476): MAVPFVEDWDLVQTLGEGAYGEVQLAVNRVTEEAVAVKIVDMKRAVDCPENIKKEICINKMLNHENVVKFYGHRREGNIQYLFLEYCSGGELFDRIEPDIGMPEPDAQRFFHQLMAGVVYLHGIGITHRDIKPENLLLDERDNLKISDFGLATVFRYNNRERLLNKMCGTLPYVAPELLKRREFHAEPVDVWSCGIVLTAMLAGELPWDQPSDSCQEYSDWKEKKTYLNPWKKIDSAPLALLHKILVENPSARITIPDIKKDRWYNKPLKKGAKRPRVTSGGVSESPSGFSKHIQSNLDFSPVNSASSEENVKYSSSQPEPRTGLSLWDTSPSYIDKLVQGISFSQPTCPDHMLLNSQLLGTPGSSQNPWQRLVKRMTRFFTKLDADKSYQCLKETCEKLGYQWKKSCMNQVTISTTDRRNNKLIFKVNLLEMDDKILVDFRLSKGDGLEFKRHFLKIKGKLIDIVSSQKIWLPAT
Method: as §1

MERTK = molecular target: T9, MERTK (Homo sapiens, UniProt Q12866)
T9 construct: purchased ProQinase (Freiburg, Germany)
T9 sequence (Q12866 21-999): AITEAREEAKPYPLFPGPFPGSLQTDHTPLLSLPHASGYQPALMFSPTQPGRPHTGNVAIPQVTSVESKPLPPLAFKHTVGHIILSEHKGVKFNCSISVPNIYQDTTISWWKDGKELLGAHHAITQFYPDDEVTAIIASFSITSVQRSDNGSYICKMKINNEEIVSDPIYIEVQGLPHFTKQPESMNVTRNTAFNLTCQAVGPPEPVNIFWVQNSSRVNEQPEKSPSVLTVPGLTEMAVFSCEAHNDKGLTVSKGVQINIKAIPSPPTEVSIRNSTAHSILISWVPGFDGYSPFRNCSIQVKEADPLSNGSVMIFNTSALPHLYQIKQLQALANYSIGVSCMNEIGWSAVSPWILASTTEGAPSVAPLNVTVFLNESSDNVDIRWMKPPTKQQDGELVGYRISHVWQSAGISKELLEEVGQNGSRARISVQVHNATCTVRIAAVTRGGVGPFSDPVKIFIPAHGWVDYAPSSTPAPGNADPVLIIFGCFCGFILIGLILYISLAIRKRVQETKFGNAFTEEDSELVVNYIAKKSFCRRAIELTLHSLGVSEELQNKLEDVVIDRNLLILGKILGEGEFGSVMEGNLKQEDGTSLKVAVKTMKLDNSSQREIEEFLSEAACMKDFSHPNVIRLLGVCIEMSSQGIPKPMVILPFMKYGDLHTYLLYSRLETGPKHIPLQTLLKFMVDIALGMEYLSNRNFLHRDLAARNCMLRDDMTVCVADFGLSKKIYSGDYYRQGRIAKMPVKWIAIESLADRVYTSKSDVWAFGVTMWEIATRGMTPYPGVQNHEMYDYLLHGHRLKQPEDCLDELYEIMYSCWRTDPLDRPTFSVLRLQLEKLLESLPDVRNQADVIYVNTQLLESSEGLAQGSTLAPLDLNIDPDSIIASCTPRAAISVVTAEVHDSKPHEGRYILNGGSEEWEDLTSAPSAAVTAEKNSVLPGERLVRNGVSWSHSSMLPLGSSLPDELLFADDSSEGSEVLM
Method: as §1

LRRK2 = molecular target: T10, LRRK2 (Homo sapiens, UniProt Q5S007)
T10 construct: purchased ProQinase (Freiburg, Germany)
Method: as §1

STK25 = molecular target: T11, STK25 (Homo sapiens, UniProt O00506)
T11 construct: purchased ProQinase (Freiburg, Germany)
T11 sequence (O00506 whole entry): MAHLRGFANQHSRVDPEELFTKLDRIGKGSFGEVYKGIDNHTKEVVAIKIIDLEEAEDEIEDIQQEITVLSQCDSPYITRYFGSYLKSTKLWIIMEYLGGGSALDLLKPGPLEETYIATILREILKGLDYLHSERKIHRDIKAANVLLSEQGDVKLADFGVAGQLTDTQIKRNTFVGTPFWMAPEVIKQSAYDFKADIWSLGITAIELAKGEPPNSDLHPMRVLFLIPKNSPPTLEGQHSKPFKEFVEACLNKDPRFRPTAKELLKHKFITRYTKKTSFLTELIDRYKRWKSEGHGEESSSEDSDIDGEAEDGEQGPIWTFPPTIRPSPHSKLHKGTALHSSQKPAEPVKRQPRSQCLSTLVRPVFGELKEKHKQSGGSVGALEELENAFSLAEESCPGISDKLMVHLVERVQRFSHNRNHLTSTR
Method: as §1

MST4 = molecular target: T12, MST4 (Homo sapiens, UniProt Q9P289)
T12 construct: purchased ProQinase (Freiburg, Germany)
Method: as §1

S6K = molecular target: T13, S6K (Homo sapiens, UniProt P23443)
T13 construct: purchased ProQinase (Freiburg, Germany)
T13 sequence (P23443 whole entry): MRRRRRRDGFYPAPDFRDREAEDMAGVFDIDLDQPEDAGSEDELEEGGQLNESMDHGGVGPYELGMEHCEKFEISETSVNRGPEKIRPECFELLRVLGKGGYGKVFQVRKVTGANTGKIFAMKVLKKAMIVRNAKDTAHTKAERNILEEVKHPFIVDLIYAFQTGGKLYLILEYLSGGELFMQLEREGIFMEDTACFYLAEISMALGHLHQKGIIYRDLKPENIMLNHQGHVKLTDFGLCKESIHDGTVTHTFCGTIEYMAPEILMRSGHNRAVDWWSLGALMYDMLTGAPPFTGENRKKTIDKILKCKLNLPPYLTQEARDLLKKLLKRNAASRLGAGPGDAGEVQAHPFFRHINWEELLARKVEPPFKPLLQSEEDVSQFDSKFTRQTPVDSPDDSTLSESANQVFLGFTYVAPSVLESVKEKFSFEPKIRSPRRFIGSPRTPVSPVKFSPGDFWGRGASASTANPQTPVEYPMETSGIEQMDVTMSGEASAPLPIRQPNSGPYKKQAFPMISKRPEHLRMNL
Method: as §1

FGFR4 = molecular target: T14, FGFR4 (Homo sapiens, UniProt P22455)
T14 construct: purchased ProQinase (Freiburg, Germany)
T14 sequence (P22455 22-802): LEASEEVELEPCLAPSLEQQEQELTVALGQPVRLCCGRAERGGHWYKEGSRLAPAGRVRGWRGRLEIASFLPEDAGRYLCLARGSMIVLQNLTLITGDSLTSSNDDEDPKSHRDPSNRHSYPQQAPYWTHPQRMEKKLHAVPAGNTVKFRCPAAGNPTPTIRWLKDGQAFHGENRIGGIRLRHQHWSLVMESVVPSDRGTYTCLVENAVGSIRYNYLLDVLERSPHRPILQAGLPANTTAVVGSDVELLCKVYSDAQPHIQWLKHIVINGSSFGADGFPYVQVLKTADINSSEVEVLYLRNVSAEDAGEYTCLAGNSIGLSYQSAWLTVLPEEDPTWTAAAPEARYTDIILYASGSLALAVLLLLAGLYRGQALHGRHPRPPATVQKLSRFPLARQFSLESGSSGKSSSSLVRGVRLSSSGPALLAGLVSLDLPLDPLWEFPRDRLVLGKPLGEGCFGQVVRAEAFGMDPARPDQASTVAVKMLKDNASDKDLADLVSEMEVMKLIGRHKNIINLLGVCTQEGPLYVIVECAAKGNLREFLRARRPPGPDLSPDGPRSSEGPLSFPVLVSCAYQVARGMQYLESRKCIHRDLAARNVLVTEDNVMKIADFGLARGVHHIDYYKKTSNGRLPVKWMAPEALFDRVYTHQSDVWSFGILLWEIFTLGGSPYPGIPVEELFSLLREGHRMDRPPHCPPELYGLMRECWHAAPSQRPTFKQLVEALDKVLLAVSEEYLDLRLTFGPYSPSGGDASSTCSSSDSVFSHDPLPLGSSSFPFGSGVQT
Method: as §1

| SMILES | Residual activity (FRK; 1.0E-05 M) | Residual activity (FRK; 1.0E-06 M) | Residual activity (SIK3; 1.0E-05 M) | Residual activity (SIK3; 1.0E-06 M) | Residual activity (PHKG1; 1.0E-05 M) | Residual activity (PHKG1; 1.0E-06 M) | Residual activity (CDK17/p35NCK; 1.0E-05 M) | Residual activity (CDK17/p35NCK; 1.0E-06 M) | Residual activity (BMPR1B; 1.0E-05 M) | Residual activity (BMPR1B; 1.0E-06 M) | Residual activity (GRK7; 1.0E-05 M) | Residual activity (GRK7; 1.0E-06 M) | Residual activity (MAP3K1; 1.0E-05 M) | Residual activity (MAP3K1; 1.0E-06 M) | Residual activity (CHK1; 1.0E-05 M) | Residual activity (CHK1; 1.0E-06 M) | Residual activity (MERTK; 1.0E-05 M) | Residual activity (MERTK; 1.0E-06 M) | Residual activity (LRRK2; 1.0E-05 M) | Residual activity (LRRK2; 1.0E-06 M) | further results |
| --- | --- | --- | --- | --- | --- | --- | --- | --- | --- | --- | --- | --- | --- | --- | --- | --- | --- | --- | --- | --- | --- |
| O=C(Nc1ccc(F)c(Nc2ccc3c(c2)CCCCC3=O)c1)c1cccc(F)c1 [Compound 109] | 102 % of control | 107 % of control | 99 % of control | 96 % of control | 86 % of control | 96 % of control | 92 % of control | 109 % of control | 128 % of control | 101 % of control | 116 % of control | 108 % of control | 93 % of control | 96 % of control | 90 % of control | 88 % of control | 85 % of control | 101 % of control | 90 % of control | 94 % of control | Residual activity (STK25; 1.0E-05 M): 91 % of control; Residual activity (STK25; 1.0E-06 M): 90 % of control; Residual activity (MST4; 1.0E-05 M): 80 % of control; Residual activity (MST4; 1.0E-06 M): 92 % of control; Residual activity (S6K; 1.0E-05 M): 91 % of control; Residual activity (S6K; 1.0E-06 M): 88 % of control; Residual activity (FGFR4; 1.0E-05 M): 79 % of control; Residual activity (FGFR4; 1.0E-06 M): 90 % of control |
| O=C(Cc1ccccc1)Nc1ccc(F)c(Nc2ccc3c(c2)CCCCC3=O)c1 [Compound 100] | 104 % of control | 107 % of control | 87 % of control | 95 % of control | 75 % of control | 95 % of control | 84 % of control | 102 % of control | 121 % of control | 102 % of control | 123 % of control | 121 % of control | 83 % of control | 96 % of control | 91 % of control | 91 % of control | 73 % of control | 103 % of control | 92 % of control | 89 % of control | Residual activity (STK25; 1.0E-05 M): 89 % of control; Residual activity (STK25; 1.0E-06 M): 100 % of control; Residual activity (MST4; 1.0E-05 M): 82 % of control; Residual activity (MST4; 1.0E-06 M): 90 % of control; Residual activity (S6K; 1.0E-05 M): 92 % of control; Residual activity (S6K; 1.0E-06 M): 102 % of control; Residual activity (FGFR4; 1.0E-05 M): 67 % of control; Residual activity (FGFR4; 1.0E-06 M): 96 % of control |
